Laboratory results from EP0013067A1, “Bicyclic beta-lactam antibacterial agents, their use in pharmaceutical compositions, processes for their preparation and intermediates for use in such processes” (BEECHAM GROUP PLC, priority 1978, dated 1980).
Converted amounts (≈) assume the structure as drawn.

Experiments:
Type in all cases: cell-based
Escherichia coli 0111 [1] = assay: MIC, DST agar + 10% horse blood; settings: Escherichia coli, 0111, inoculum 0.001 ml of an undilute overnight broth culture, unit inferred
Description: (§1) The ninimum inhibitory concentrations (MIC) cf this compound required to inhibit the growth of various bacteria are tabulated balow: […]

Citrobacter freundii E8 [2] = assay: MIC, DST agar + 10% horse blood; settings: Citrobacter freundii, E8, read-out: MIC Agar
Description: as §1

Serratia marcescens US20 [3] = assay: MIC, DST agar + 10% horse blood; settings: Serratia marcescens US20; DST agar + 10% horse blood; inoculum 0.001 ml of an undilute overnight broth culture; unit inferred; read-out: MIC Agar
Description: as §1

[4] = tested on: Streptococcus pneumoniae CN33; assay: MIC, DST agar + 10% horse blood; settings: Streptococcus pneumoniae CN33; DST agar + 10% horse blood; inoculum 0.001 ml of an undilute overnight broth culture; unit inferred; read-out: MIC Agar
Description: as §1

Proteus rettgeri WM16 = assay: MIC, DST agar + 10% horse blood; settings: Providencia rettgeri; Proteus rettgeri WM16; DST agar + 10% horse blood; inoculum 0.001 ml of an undilute overnight broth culture; unit inferred; read-out: MIC Agar
Description: as §1

[5] = tested on: Salmonella typhimurium CT10; assay: MIC, DST agar + 10% horse blood; settings: Salmonella enterica, TYPHIMURIUM, read-out: MIC Agar
Description: as §1

Proteus vulgaris W091 = assay: MIC, DST agar + 10% horse blood; settings: W091; Proteus vulgaris WO91; DST agar + 10% horse blood; inoculum 0.001 ml of an undilute overnight broth culture; unit inferred; read-out: MIC Agar
Description: as §1

Klebsiella aerogenes A [6] = assay: MIC, DST agar + 10% horse blood; settings: Klebsiella aerogenes A; DST agar + 10% horse blood; inoculum 0.001 ml of an undilute overnight broth culture; unit inferred; read-out: MIC Agar
Description: as §1

[7] = tested on: Staphylococcus aureus Oxford; assay: MIC, DST agar + 10% horse blood; settings: Staphylococcus aureus Oxford; DST agar + 10% horse blood; inoculum 0.001 ml of an undilute overnight broth culture; unit inferred; read-out: MIC Agar
Description: as §1

Proteus mirabilis C977 [8] = assay: MIC, DST agar + 10% horse blood; settings: Proteus mirabilis C977; DST agar + 10% horse blood; inoculum 0.001 ml of an undilute overnight broth culture; unit inferred; read-out: MIC Agar
Description: as §1

Pseudomonas aeruginosa A [9] = assay: MIC, DST agar + 10% horse blood; settings: Pseudomonas aeruginosa, read-out: MIC Agar
Description: as §1

[10] = tested on: Staphylococcus aureus 1517; assay: MIC, DST agar + 10% horse blood; settings: Staphylococcus aureus 1517; DST agar + 10% horse blood; inoculum 0.001 ml of an undilute overnight broth culture; unit inferred; read-out: MIC Agar
Description: as §1

Enterobacter cloacae N1 [11] = assay: MIC, DST agar + 10% horse blood; settings: Enterobacter cloacae N1; DST agar + 10% horse blood; inoculum 0.001 ml of an undilute overnight broth culture; unit inferred; read-out: MIC Agar
Description: as §1

Bacillus subtilis A = assay: MIC, DST agar + 10% horse blood; settings: Bacillus subtilis A; DST agar + 10% horse blood; inoculum 0.001 ml of an undilute overnight broth culture; unit inferred; read-out: MIC Agar
Description: as §1

Escherichia coli JT 39 [12] = assay: MIC, DST agar + 10% horse blood; settings: JT39; Escherichia coli JT 39; DST agar + 10% horse blood; inoculum 0.001 ml of an undilute overnight broth culture; unit inferred; read-out: MIC Agar
Description: as §1

[13] = tested on: Streptococcus pyogenes CN10; assay: MIC, DST agar + 10% horse blood; settings: Streptococcus pyogenes CN10; DST agar + 10% horse blood; inoculum 0.001 ml of an undilute overnight broth culture; unit inferred; read-out: MIC Agar
Description: as §1

Streptococcus faecalis I [14] = assay: MIC, DST agar + 10% horse blood; settings: Enterococcus faecalis; Streptococcus faecalis I; DST agar + 10% horse blood; inoculum 0.001 ml of an undilute overnight broth culture; unit inferred; read-out: MIC Agar
Description: as §1

Shigella sonnei MB 11967 [15] = assay: MIC, DST agar + 10% horse blood; settings: MB11967, inoculum 0.001 ml of an undilute overnight broth culture, unit inferred
Description: as §1

Proteus morganii I580 [16] = assay: MIC, DST agar + 10% horse blood; settings: Morganella morganii; Proteus morganii I580; DST agar + 10% horse blood; inoculum 0.001 ml of an undilute overnight broth culture; unit inferred; read-out: MIC Agar
Description: as §1

[17] = tested on: Staphylococcus aureus Russell; assay: MIC, DST agar + 10% horse blood; settings: Staphylococcus aureus Russell; DST agar + 10% horse blood; inoculum 0.001 ml of an undilute overnight broth culture; unit inferred; read-out: MIC Agar
Description: as §1

E. coli ESS [18] = assay: MIC, DST agar + 10% horse blood; settings: Escherichia coli, inoculum 0.001 ml of an undilute overnight broth culture, unit inferred
Description: as §1

Escherichia coli 0111 [19] = assay: MIC, microtitre using Nutrient broth; settings: Microtitre using Nutrient broth, inoculum 0.001 ml of an undilute overnight broth culture, unit inferred
Description: as §1

Citrobacter freundii E8 [20] = assay: MIC, microtitre using Nutrient broth; settings: inoculum 0.001 ml of an undilute overnight broth culture, unit inferred
Description: as §1

Serratia marcescens US20 [21] = assay: MIC, microtitre using Nutrient broth; settings: inoculum 0.001 ml of an undilute overnight broth culture, unit inferred
Description: as §1

Klebsiella aerogenes A [22] = assay: MIC, microtitre using Nutrient broth; settings: Klebsiella aerogenes A; Microtitre using Nutrient broth; inoculum 0.001 ml of an undilute overnight broth culture; unit inferred; read-out: MIC Broth
Description: as §1

[23] = tested on: Staphylococcus aureus Oxford; assay: MIC, microtitre using Nutrient broth; settings: Staphylococcus aureus Oxford; Microtitre using Nutrient broth; inoculum 0.001 ml of an undilute overnight broth culture; unit inferred; read-out: MIC Broth
Description: as §1

Proteus mirabilis C977 [24] = assay: MIC, microtitre using Nutrient broth; settings: Proteus mirabilis C977; Microtitre using Nutrient broth; inoculum 0.001 ml of an undilute overnight broth culture; unit inferred; read-out: MIC Broth
Description: as §1

Pseudomonas aeruginosa A [25] = assay: MIC, microtitre using Nutrient broth; settings: Pseudomonas aeruginosa; Pseudomanas aeruginosa A; Microtitre using Nutrient broth; inoculum 0.001 ml of an undilute overnight broth culture; unit inferred; read-out: MIC Broth
Description: as §1

Enterobacter cloacae N1 [26] = assay: MIC, microtitre using Nutrient broth; settings: Microtitre using Nutrient broth, inoculum 0.001 ml of an undilute overnight broth culture, unit inferred
Description: as §1

Escherichia coli JT 39 [27] = assay: MIC, microtitre using Nutrient broth; settings: JT39; Escherichia coli JT 39; Microtitre using Nutrient broth; inoculum 0.001 ml of an undilute overnight broth culture; unit inferred; read-out: MIC Broth
Description: as §1

[28] = tested on: Streptococcus pyogenes CN10; assay: MIC, microtitre using Nutrient broth; settings: inoculum 0.001 ml of an undilute overnight broth culture, unit inferred
Description: as §1

Streptococcus faecalis I [29] = assay: MIC, microtitre using Nutrient broth; settings: Enterococcus faecalis, inoculum 0.001 ml of an undilute overnight broth culture, unit inferred
Description: as §1

Shigella sonnei MB 11967 [30] = assay: MIC, microtitre using Nutrient broth; settings: MB11967, inoculum 0.001 ml of an undilute overnight broth culture, unit inferred
Description: as §1

Proteus morganii I580 [31] = assay: MIC, microtitre using Nutrient broth; settings: Morganella morganii, inoculum 0.001 ml of an undilute overnight broth culture, unit inferred
Description: as §1

[32] = tested on: Staphylococcus aureus Russell; assay: MIC, microtitre using Nutrient broth; settings: Staphylococcus aureus Russell; Microtitre using Nutrient broth; inoculum 0.001 ml of an undilute overnight broth culture; unit inferred; read-out: MIC Broth
Description: as §1

E. coli ESS [33] = assay: MIC, microtitre using Nutrient broth; settings: Escherichia coli, inoculum 0.001 ml of an undilute overnight broth culture, unit inferred
Description: as §1

`NCC1=C(C(=O)O)N2C(=O)C[C@H]2S1` [compound 37, 2-Aminomethylpenem-3-carboxylic acid] gave an MIC (Escherichia coli 0111 [1]) of 25 mg/L, an MIC (Citrobacter freundii E8 [2]) of 12.5 mg/L and an MIC (Serratia marcescens US20 [3]) of 25 mg/L. The MIC [4] was 0.5 mg/L, the MIC (Proteus rettgeri WM16) was greater than 50 mg/L and the MIC [5] was 12.5 mg/L. For the same molecule, the MIC (Proteus vulgaris W091) was greater than 50 mg/L, the MIC (Klebsiella aerogenes A [6]) was 50 mg/L and the MIC [7] was 5 mg/L. It also gave an MIC (Proteus mirabilis C977 [8]) of 25 mg/L, an MIC (Pseudomonas aeruginosa A [9]) of 12.5 mg/L and an MIC [10] greater than 50 mg/L. It also gave an MIC (Enterobacter cloacae N1 [11]) of 50 mg/L, an MIC (Bacillus subtilis A) of 2.5 mg/L and an MIC (Escherichia coli JT 39 [12]) of 50 mg/L. For the same molecule, the MIC [13] was 1.25 mg/L, the MIC (Streptococcus faecalis I [14]) was greater than 50 mg/L and the MIC (Shigella sonnei MB 11967 [15]) was 12.5 mg/L. The MIC (Proteus morganii I580 [16]) was greater than 50 mg/L, the MIC [17] was 5 mg/L and the MIC (E. coli ESS [18]) was 5 mg/L. It also gave an MIC (Escherichia coli 0111 [19]) of 8 mg/L (≈ 40 µM), an MIC (Citrobacter freundii E8 [20]) of 0.5 mg/L (≈ 2.5 µM) and an MIC (Serratia marcescens US20 [21]) of 16 mg/L (≈ 79.9 µM). For the same molecule, the MIC (Klebsiella aerogenes A [22]) was 8 mg/L (≈ 40 µM), the MIC [23] was 2 mg/L (≈ 9.99 µM) and the MIC (Proteus mirabilis C977 [24]) was 8 mg/L (≈ 40 µM). For the same molecule, the MIC (Pseudomonas aeruginosa A [25]) was 1 mg/L (≈ 4.99 µM), the MIC (Enterobacter cloacae N1 [26]) was 16 mg/L (≈ 79.9 µM) and the MIC (Escherichia coli JT 39 [27]) was 16 mg/L (≈ 79.9 µM). It also gave an MIC [28] of 1 mg/L (≈ 4.99 µM), an MIC (Streptococcus faecalis I [29]) of 62 mg/L (≈ 310 µM) and an MIC (Shigella sonnei MB 11967 [30]) of 4 mg/L (≈ 20 µM). For the same molecule, the MIC (Proteus morganii I580 [31]) was 16 mg/L (≈ 79.9 µM), the MIC [32] was 4 mg/L (≈ 20 µM) and the MIC (E. coli ESS [33]) was 4 mg/L (≈ 20 µM).
